Series [1] relates to M. tuberculosis H37Rv. The series is described as follows: microbe, parasite or virus in culture. The format is cell-based, Mycobacterium tuberculosis. Conditions: Tables 1-4 and text; […].
Series [2] concerns M. tuberculosis H37Rv Rv1258c knockout (KO). The series is described as follows: microbe, parasite or virus in culture. It is filed as cell-based. Conditions: Tables 1-4 and text; 7 days, 7H9 broth.
The target of series [3] is Purified 70S M. smegmatis bacterial ribosomes (Mycolicibacterium smegmatis, UniProt A0QSG6). The series is described as follows: Ribosomal translation inhibition. It is filed as biochemical. The following applies: for Ribosome IC50: inhibits luciferase activity by 50%.
Sequence of Purified 70S M. smegmatis bacterial ribosomes (A0QSG6 whole entry): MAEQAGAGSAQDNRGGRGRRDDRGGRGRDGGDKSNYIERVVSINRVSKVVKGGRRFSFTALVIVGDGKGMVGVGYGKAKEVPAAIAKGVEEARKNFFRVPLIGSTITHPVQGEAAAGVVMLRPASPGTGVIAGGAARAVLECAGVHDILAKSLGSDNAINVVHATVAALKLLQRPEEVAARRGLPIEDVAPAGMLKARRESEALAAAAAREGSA
The subject of series [4] is Rv1258c efflux pump. The following applies: for Efflux Ratio: H37Rv MIC / Rv1258c KO MIC.

Some results are limits rather than exact numbers.

One may read the IC50 as the concentration that gives 50% inhibition. A low value points to higher potency.

Consider `CNC1C(O)C(NC)C2OC3(O)C(OC(C)C[C@H]3NC(=O)Cc3cccnc3)OC2C1O.Cl.Cl.Cl` (stereo partly drawn) [Compound 3, 3′-Dihydro-3′-deoxy-3′(R)-(pyridin-3yl)acetylamino spectinomycin trihydrochloride], for which the “H37Rv MIC” value in series [1] came to 200 µg/mL. Also, in series [2], the “Rv1258c KO MIC” value amounted to 6.3 µg/mL.
Take `CNC1C(O)C(NC)C2OC3(O)C(OC(C)C[C@H]3NC(=O)Cc3ccncc3)OC2C1O.Cl.Cl.Cl` (stereo partly drawn) [Compound 4, 3′-Dihydro-3′-deoxy-3′(R)-(pyridin-4yl)acetylamino spectinomycin trihydrochloride]: in series [1], the “H37Rv MIC” value was 200 µg/mL. In series [2], the “Rv1258c KO MIC” value was 12.5 µg/mL.
Consider `Br.Br.Br.CNC1C(O)C(NC)C2OC3(O)C(NC(=O)Cc4ccccn4)CC(C)OC3OC2C1O` [Compound 5, 3′-Dihydro-3′-deoxy-3′(S)-(pyridin-2-yl)acetylamino spectinomycin Trihydrobromide], for which the “Rv1258c KO MIC” value in series [2] was more than 200 µg/mL. Besides, the “Ribosome IC50” value in series [3] stood at 42.23 µg/mL.
On to `CNC1C(O)C(NC)C2OC3(O)C(OC(C)C[C@H]3NCCc3ccccc3)OC2C1O.Cl.Cl.Cl` (stereo partly drawn) [Compound 6, 3′-Dihydro-3′-deoxy-4(R)-2-phenylethylamino spectinomycin trihydrochloride], for which, in series [1], the “H37Rv MIC” value turned out to be 200 µg/mL.
Consider `CNC1C(O)C(NC)C2OC3(O)C(OC(C)C[C@H]3NC(=O)Oc3ccccc3)OC2C1O.Cl.Cl` (stereo partly drawn) [Compound 7, 3′-Dihydro-3′-deoxy-3′(R)-phenyloxycarbonylamino spectinomycin dihydrochloride], for which the “H37Rv MIC” value in series [1] was more than 200 µg/mL. In addition, the “Rv1258c KO MIC” value in series [2] is more than 200 µg/mL. Besides, the “Ribosome IC50” value in series [3] was 16.62 µg/mL.
Consider `Br.Br.Br.CNC1C(O)C(NC)C2OC3(O)C(OC(C)C[C@H]3NC(=O)Nc3ccccc3)OC2C1O` (stereo partly drawn) [Compound 8, 3′-Dihydro-3′-deoxy-3′(R)-phenylaminocarbonylamino spectinomycin trihydrobromide], for which, in series [2], the “Rv1258c KO MIC” value worked out at 25 µg/mL. In addition, the “Ribosome IC50” value in series [3] was found to be 3.77 µg/mL. In series [4], the “Efflux Ratio” value was more than 8.
On to `Br.Br.CNC1C(O)C(NC)C2OC3(O)C(NS(=O)(=O)Cc4ccccc4)CC(C)OC3OC2C1O` [Compound 9, 3′-Dihydro-3′-deoxy-3′(R)-benzylsulfonylamino spectinomycin dihydrobromide], for which the “H37Rv MIC” value in series [1] was more than 200 µg/mL. Also, the “Rv1258c KO MIC” value in series [2] was determined as 12.5 µg/mL. In series [3], the “Ribosome IC50” value was 10.97 µg/mL. For the same compound, the “Efflux Ratio” value in series [4] is given as more than 16.
For `CNC1C(O)C(NC)C2OC3(O)C(NC(=O)Nc4ccccn4)CC(C)OC3OC2C1O.Cl.Cl` [Compound 10, 3′-Dihydro-3′-deoxy-3′(R)-(pyridin-2-yl)aminocarbonylamino spectinomycin dihydrochloride] the same measures were 12.5 µg/mL, 3.1 µg/mL, 2.24 µg/mL and 4.
Turning to `CNC1C(O)C(NC)C2OC3(O)C(NC(=O)c4ccccn4)CC(C)OC3OC2C1O.Cl.Cl.Cl` [Compound 11, 3′-Dihydro-3′-deoxy-3′(R)-pyridin-2-carboxylicamino spectinomycin trihydrochloride], in series [2], the “Rv1258c KO MIC” value is more than 200 µg/mL.
For `Br.Br.Br.CNC1C(O)C(NC)C2OC3(O)C(NC(=O)CCc4ccccn4)CC(C)OC3OC2C1O` [Compound 12, 3′-Dihydro-3′-deoxy-3′(R)-(pyridin-2-yl)propanoylamino spectinomycin trihydrobromide], the “H37Rv MIC” value in series [1] was 50 µg/mL. Further, the “Rv1258c KO MIC” value in series [2] was 6.3 µg/mL. For the same compound, the “Ribosome IC50” value in series [3] was determined as 3.80 µg/mL. In series [4], the “Fold change of MIC between H37Rv and Rv1258c KO (efflux)” value (shortened to “Fold change”) is 8 fold; the “Efflux Ratio” value came out at 8.
As to `CN[C@@H]1[C@H](O)[C@H](NC)[C@H]2O[C@]3(O)[C@H](O[C@@H]2[C@H]1O)O[C@H](C)C[C@H]3NC(=O)Cc1ncccn1.Cl.Cl` [Compound 13, 3′-Dihydro-3′-deoxy-3′(R)-(pyrimidin-2yl)acetylamino spectinomycin dihydrochloride], in series [2], the “Rv1258c KO MIC” value is more than 200 µg/mL. The compound also had an IC50 in series [3] (as printed in modeling section) of 45.5 µM. Besides, in series [3], the “Ribosome IC50” value turned out to be 45.50 µg/mL. The “Fold weaker binding than 1” value in series [3] (relative to 1) came to 39 fold.
`Br.Br.Br.CNC1C(O)C(NC)C2OC3(O)C(NC(=O)Cc4cccnn4)CC(C)OC3OC2C1O` [Compound 14, 3′-Dihydro-3′-deoxy-3′(R)-(pyridazin-3-yl) acetylamino spectinomycin trihydrobromide]: the “Rv1258c KO MIC” value in series [2] worked out at 12.5 µg/mL. Also, in series [4], the “Efflux Ratio” value is 2.
Turning to `Br.Br.Br.CNC1C(O)C(NC)C2OC3(O)C(OC(C)C[C@H]3NC(=O)Cc3cnccn3)OC2C1O` (stereo partly drawn) [Compound 15, 3′-Dihydro-3′-deoxy-3′(R)-(pyrazin-2-yl)acetylamino spectinomycin trihydrobromide], the “Rv1258c KO MIC” value in series [2] is 25 µg/mL. Further, in series [4], the “Efflux Ratio” value is given as 1.
On the same counts, the results for `Br.Br.Br.CNC1C(O)C(NC)C2OC3(O)C(OC(C)C[C@H]3NC(=O)Cc3ccncn3)OC2C1O` (stereo partly drawn) [Compound 16, 3′-Dihydro-3′-deoxy-3′(R)-(pyrimidin-4-yl)acetylamino spectinomycin trihydrobromide] are 25 µg/mL and 0.5.
With `Br.Br.Br.CNC1C(O)C(NC)C2OC3(O)C(NC(=O)Cc4csc(N)n4)CC(C)OC3OC2C1O` [Compound 18, 3′-Dihydro-3′-deoxy-3′(R)-(2-aminothiazol-4-yl)acetylamino spectinomycin trihydrobromide], the “Rv1258c KO MIC” value in series [2] amounted to 6.3 µg/mL. The “Ribosome IC50” value in series [3] came to 0.62 µg/mL. Besides, the “Efflux Ratio” value in series [4] is given as 1.
In the case of `Br.Br.Br.CNC1C(O)C(NC)C2OC3(O)C(NC(=O)Cc4nccs4)CC(C)OC3OC2C1O` [Compound 19, 3′-Dihydro-3′-deoxy-3′(R)-(thiazol-2-yl) acetylamino spectinomycin trihydrobromide], in series [2], the “Rv1258c KO MIC” value came to 6.3 µg/mL. For the same compound, the “Ribosome IC50” value in series [3] was found to be 0.72 µg/mL. The “Efflux Ratio” value in series [4] turned out to be 1.
Turning to `Br.Br.Br.CNC1C(O)C(NC)C2OC3(O)C(NC(=O)Cc4c[nH]cn4)CC(C)OC3OC2C1O` [Compound 20, 3′-Dihydro-3′-deoxy-3′(R)-(1H-imidazol-4-yl)acetylamino spectinomycin trihydrobromide], the “H37Rv MIC” value in series [1] worked out at 25 µg/mL. In addition, the “Rv1258c KO MIC” value in series [2] turned out to be 12.5 µg/mL. Also, in series [3], the “Ribosome IC50” value is 1.10 µg/mL. Besides, the “Efflux Ratio” value in series [4] is given as 2.
On the same counts, the results for `Br.Br.Br.CNC1C(O)C(NC)C2OC3(O)C(NC(=O)Cn4cccn4)CC(C)OC3OC2C1O` [Compound 22, 3′-Dihydro-3′-deoxy-3′(R)-(1H-pyrazol-1-yl)acetylamino spectinomycin trihydrobroride] are 6.3 µg/mL, 6.3 µg/mL, 0.42 µg/mL and 1.
As for `Br.Br.Br.CNC1C(O)C(NC)C2OC3(O)C(OC(C)C[C@H]3NC(=O)Cn3ccnc3)OC2C1O` (stereo partly drawn) [Compound 23, 3′-Dihydro-3′-deoxy-3′(R)-(1H-imidazol-1-yl)acetylamino spectinomycin trihydrobromide], the “H37Rv MIC” value in series [1] came out at 100 µg/mL. The “Rv1258c KO MIC” value in series [2] worked out at 12.5 µg/mL. Besides, the “Ribosome IC50” value in series [3] stood at 1.51 µg/mL. Besides, in series [4], the “Fold change” value came out at 8 fold; the “Efflux Ratio” value turned out to be 8.
Take `Br.Br.Br.CNC1C(O)C(NC)C2OC3(O)C(NC(=O)Cc4nc5ccccc5o4)CC(C)OC3OC2C1O` [Compound 24, 3′-Dihydro-3′-deoxy-3′(R)-(benzo[d]oxazol-2-yl)acetylamino spectinomycin trihydrobroride]: the “H37Rv MIC” value in series [1] turned out to be 6.3 µg/mL. For the same compound, the “Rv1258c KO MIC” value in series [2] stood at 3.1 µg/mL. Besides, the “Ribosome IC50” value in series [3] came to 0.61 µg/mL. Moreover, the “Efflux Ratio” value in series [4] worked out at 2.
For `Br.Br.Br.CNC1C(O)C(NC)C2OC3(O)C(OC(C)C[C@H]3NC(=O)Cc3nc4ccccc4n3C)OC2C1O` (stereo partly drawn) [Compound 26, 3′-Dihydro-3′-deoxy-3′(R)-(1-methyl-1H-benzo[d]imidazol-2-yl)acetylamino spectinomycin trihydrobroride] the same measures were 6.3 µg/mL, 3.1 µg/mL, 0.26 µg/mL and 2.
`CNC1C(O)C(NC)C2OC3(O)C(NC(=O)Cc4cc5ccccc5[nH]4)CC(C)OC3OC2C1O` [Compound 28, 3′-Dihydro-3′-deoxy-3′(R)-(1H-indol-2-yl)acetylamino spectinomycin]: in series [1], the “H37Rv MIC” value was 25 µg/mL. Besides, the “Rv1258c KO MIC” value in series [2] came to 0.8 µg/mL. Besides, the “Ribosome IC50” value in series [3] was 0.77 µg/mL. In series [4], the “Fold change” value turned out to be 32 fold; the “Efflux Ratio” value is 32.
In the case of `Br.Br.Br.CNC1C(O)C(NC)C2OC3(O)C(NC(=O)Cc4ccc(C)cn4)CC(C)OC3OC2C1O` [Compound 31, 3′-Dihydro-3′-deoxy-3′(R)-(5-methylpyridin-2-yl)acetylamino spectinomycin trihydrobromide], the “H37Rv MIC” value in series [1] was 3.1 µg/mL. The “Rv1258c KO MIC” value in series [2] was 3.1 µg/mL. Moreover, the “Ribosome IC50” value in series [3] is 0.54 µg/mL.
`Br.Br.Br.CNC1C(O)C(NC)C2OC3(O)C(NC(=O)Cc4ccc(N)cn4)CC(C)OC3OC2C1O` [Compound 37, 3′-Dihydro-3′-deoxy-3′(R)-(5-aminopyridin-2-yl)acetylamino spectinomycin trihydrobromide]: in series [1], the “H37Rv MIC” value came to 6.3 µg/mL. In addition, the “Rv1258c KO MIC” value in series [2] turned out to be 6.3 µg/mL. For the same compound, the “Ribosome IC50” value in series [3] amounted to 0.30 µg/mL.
Regarding `CNC1C(O)C(NC)C2OC3(O)C(OC(C)C[C@H]3NC(=O)Cc3ccc(OC(F)F)cn3)OC2C1O.Cl.Cl.Cl` (stereo partly drawn) [Compound 40, 3′-Dihydro-3′-deoxy-3′(R)-(5-(difluoromethoxy)pyridin-2-yl)acetylamino spectinomycin trihydrochloride], in series [4], the “Efflux Ratio” value was determined as 2.
